# What was measured:
# ARPE-19 cells = assay: Cell death protective effect in retinal epithelial cells against Erastin and RSL3 (LDH); type: cell-based, human; settings: 24 h
# Protocol: In order to identify the protective effect on retinal epithelial cells, ARPE-19 cells were divided into 96-well plates by 1×10^4 and cultured for 18 to 24 hours. The compounds of Examples were diluted to final concentrations of 0.03 and 0.3 μM, treated in each well, and incubated for 20 minutes. Erastin, and RSL3 were treated to have final concentrations of 10 μM, and 0.3 μM, respectively, and cultured for 24 hours. In order to identify the protective effect of each compound, the degree of LDH extracellular secretion was measured using cytotoxicity LDH assay kit [Dojindo; CK12]. Briefly, at the time when the treatment of the cells with Erastin, and RSL3 for 24 hours is completed, the supernatants containing the cells are taken by 70 μL and transferred to a new 96-well plate. The assay buffer included in the kit is added in an amount of 70 μL/well (the same amount as the sample) thereto, and then the plate is wrapped with a foil and the reaction is performed at room temperature for 15 minutes.
# H9C2 cells = assay: Cell death protective effect in cardiac myocytes against Erastin, glutamate and RSL3 (LDH); type: cell-based, white mouse; settings: 24 h
# Protocol: (§1) In order to identify the protective effect on cardiac cells, H9C2 cells were divided into 96-well plates by 1×10^4 and cultured for 18 to 24 hours. The compounds of Examples were diluted to final concentrations of 0.1 and 1.0 μM, treated in each well, and incubated for 15 to 20 minutes. Erastin, glutamate, and RSL3 were treated to have final concentrations of 1 μM, 25 mM, and 0.5 μM, respectively, and cultured for 24 hours. In order to identify the protective effect of each compound, the degree of LDH extracellular secretion was measured using cytotoxicity LDH assay kit [Dojindo; CK12]. Briefly, at the time when the treatment of the cells with Erastin, glutamate, and RSL3 for 24 hours is completed, the supernatants containing the cells are taken by 70 μL and transferred to a new 96-well plate. The assay buffer included in the kit is added in an amount of 70 μL/well (the same amount as the sample) thereto, and then the plate is wrapped with a foil and the reaction is performed at room temperature for 15 minutes.
# PC-12 cells = assay: Cell death protective effect in adrenal cells against Erastin, glutamate and RSL3 (LDH); type: cell-based, rat; settings: 24 h
# Protocol: In order to identify the protective effect on adrenal cells, PC-12 cells were divided into 96-well plates by 1×10^4 and cultured for 18 to 24 hours. […] Erastin, glutamate, and RSL3 were treated to have final concentrations of 1 μM, 10 mM, and 0.3 μM, respectively, and cultured for 24 hours. In order to identify the protective effect of each compound, the degree of LDH extracellular secretion was measured using cytotoxicity LDH assay kit [Dojindo; CK12]. Briefly, at the time when the treatment of the cells with Erastin, glutamate, and RSL3 for 24 hours is completed, the supernatants containing the cells are taken by 70 μL and transferred to a new 96-well plate. The assay buffer included in the kit is added in an amount of 70 μL/well (the same amount as the sample) thereto, and then the plate is wrapped with a foil and the reaction is performed at room temperature for 15 minutes.
# NIH/3T3 cells = assay: Cell death protective effect in fibroblasts against Erastin, glutamate and RSL3 (LDH); type: cell-based, mouse; settings: 24 h
# Protocol: as §1, with “on fibroblasts, NIH/3T3” for “on cardiac cells, H9C2”, “by 8×10^3” for “by 1×10^4”, “and 1” for “and 1.0”, “of 3” for “of 1”, “μM, 30” for “μM, 25”, “and 3” for “and 0.5”
# MLE-12 cells = assay: Cell death protective effect in lung epithelial cells against RSL3 (LDH); type: cell-based, rat; settings: MLE-12, RSL3, 1 μM, 24 h
# Protocol: In order to identify the protective effect on lung epithelial cells, MLE-12 cells were divided into 96-well plates by 5×10^3 and cultured for 18 to 24 hours. The compounds of Examples were diluted to final concentrations of 0.03 and 0. μM, treated in each well, and incubated for 20 minutes. RSL3 was treated to have final concentrations of 1. μM, respectively, and cultured for 24 hours. In order to identify the protective effect of each compound, the degree of LDH extracellular secretion was measured using cytotoxicity LDH assay kit [Dojindo; CK12]. Briefly, at the time when the treatment of the cells with RSL3 for 24 hours is completed, the supernatants containing the cells are taken by 70 μL and transferred to a new 96-well plate. The assay buffer included in the kit is added in an amount of 70 μL/well (the same amount as the sample) thereto, and then the plate is wrapped with a foil and the reaction is performed at room temperature for 15 minutes.
# [1] = ARPE-19, Erastin, 10 μM, compound 0.03 μM
# [2] = ARPE-19, Erastin, 10 μM, compound 0.3 μM
# [3] = ARPE-19, RSL3, 0.3 μM, compound 0.03 μM (first RSL3 column)
# [4] = ARPE-19, RSL3, 0.3 μM, compound 0.03 μM (second RSL3 column)
# [5] = H9C2, Erastin, 1 μM, compound 0.1 μM
# [6] = H9C2, Erastin, 1 μM, compound 1.0 μM
# [7] = H9C2, Glutamate, 25 mM, compound 0.1 μM
# [8] = H9C2, Glutamate, 25 mM, compound 1.0 μM
# [9] = H9C2, RSL3, 0.5 μM, compound 0.1 μM
# [10] = H9C2, RSL3, 0.5 μM, compound 1.0 μM
# [11] = PC-12, Erastin, 1 μM, compound 0.1 μM
# [12] = PC-12, Erastin, 1 μM, compound 1.0 μM
# [13] = PC-12, Glutamate, 10 mM, compound 0.1 μM
# [14] = PC-12, Glutamate, 10 mM, compound 1.0 μM
# [15] = PC-12, RSL3, 0.3 μM, compound 0.1 μM
# [16] = PC-12, RSL3, 0.3 μM, compound 1.0 μM
# [17] = NIH/3T3, Erastin, 3 μM, compound 0.1 μM
# [18] = NIH/3T3, Erastin, 3 μM, compound 1.0 μM
# [19] = NIH/3T3, Glutamate, 30 mM, compound 0.1 μM
# [20] = NIH/3T3, Glutamate, 30 mM, compound 1.0 μM
# [21] = NIH/3T3, RSL3, 3 μM, compound 0.1 μM
# [22] = NIH/3T3, RSL3, 3 μM, compound 1.0 μM
Compound,inhibition (%) (ARPE-19 cells; [1]),inhibition (%) (ARPE-19 cells; [2]),inhibition (%) (ARPE-19 cells; [3]),inhibition (%) (ARPE-19 cells; [4]),inhibition (%) (H9C2 cells; [5]),inhibition (%) (H9C2 cells; [6]),inhibition (%) (H9C2 cells; [7]),inhibition (%) (H9C2 cells; [8]),inhibition (%) (H9C2 cells; [9]),inhibition (%) (H9C2 cells; [10]),inhibition (%) (PC-12 cells; [11]),inhibition (%) (PC-12 cells; [12]),inhibition (%) (PC-12 cells; [13]),inhibition (%) (PC-12 cells; [14]),inhibition (%) (PC-12 cells; [15]),inhibition (%) (PC-12 cells; [16]),inhibition (%) (NIH/3T3 cells; [17]),inhibition (%) (NIH/3T3 cells; [18]),inhibition (%) (NIH/3T3 cells; [19]),inhibition (%) (NIH/3T3 cells; [20]),further results
"COCCc1cc(NC2CCOCC2)c2[nH]c(-c3ccccc3)cc2c1 [Example 41, 5-(2-methoxyethyl)-2-phenyl-N-(tetrahydro-2H-pyran-4-yl)-1H-indol-7-amine]",100,100,100,100,100,100,99,98,100,100,100,100,76,100,100,100,0,0,99,98,inhibition (%) (NIH/3T3 cells; [21]): 100%; inhibition (%) (NIH/3T3 cells; [22]): 100%; inhibition (%) (MLE-12 cells; compound 0.03 μM): 95%; inhibition (%) (MLE-12 cells; compound 0.3 μM): 97%
"CCOCc1cc(NC2CCOCC2)c2[nH]c(-c3ccccc3)c(-c3ncc[nH]3)c2c1 [Example 46, 5-(ethoxymethyl)-3-(1H-imidazol-2-yl)-2-phenyl-N-(tetrahydro-2H-pyran-4-yl)-1H-indole-7-amine]",3,64,5,43,4,100,4,94,15,9,0,38,4,6,0,100,102,99,0,96,inhibition (%) (NIH/3T3 cells; [21]): 0%; inhibition (%) (NIH/3T3 cells; [22]): 100%; inhibition (%) (MLE-12 cells; compound 0.03 μM): 0%; inhibition (%) (MLE-12 cells; compound 0.3 μM): 7%
"CCOC(=O)c1ccc(NC2CCCCC2)c(N)c1 [Ferrostatin-1, reference compound]",96,100,68,100,100,100,95,97,83,100,100,100,29,99,100,100,0,96,98,98,inhibition (%) (NIH/3T3 cells; [21]): 100%; inhibition (%) (NIH/3T3 cells; [22]): 100%; inhibition (%) (MLE-12 cells; compound 0.03 μM): 25%; inhibition (%) (MLE-12 cells; compound 0.3 μM): 98%

# Reference: US20250289785A1, “INDOLE DERIVATIVE, METHOD FOR PREPARING SAME, AND USE THEREOF” (MITOIMMUNE THERAPEUTICS INC., priority 2021, published 2025)
